{
  "source": "patent US7101900B2",
  "about": "“Benzyl amidoxime derivatives, intermediate products and method for their production and use as fungicides” (BASF Aktiengesellschaft, priority 1999, dated 2006)",
  "key": {"[1]": {"system": "cucumber mildew (Sphaerotheca fuliginea)", "test": "Protective activity against cucumber mildew (spray test on cucumber seedlings)", "format": "in vivo", "settings": "cucumber seedlings c.v. Chinesische Schlange, inoculated 20 hours after spray coating dried, visual, total leaf area, after 20 days, untreated 90", "method": "Protective Activity Against Cucumber Mildew\nAt the two-leaf stage, leaves of cucumber seedlings c.v. “Chinesische Schlange” which had been grown in pots were sprayed to run off point with an aqueous preparation of active compound which had been prepared from a stock solution comprising 10% of active compound, 63% of cyclohexanone and 27% of emulsifier. 20 hours after the spray coating had dried on, the plants were inoculated with an aqueous spore suspension of cucumber mildew (Sphaerotheca fuliginea). The plants were then cultivated in a greenhouse at 20–24° C. and 60–80% relative atmospheric humidity for 20 days. The extent of the mildew development was then determined visually in % infection of the total leaf area."}, "[2]": {"system": "powdery mildew of wheat (Erysiphe graminis forma specialis tritici)", "test": "Activity against mildew of wheat (protective spray test on wheat seedlings)", "format": "in vivo", "settings": "wheat seedlings c.v. Kanzler, dusted with spores 24 hours after spray coating dried, visual, total leaf area, after 7 days, untreated 95", "method": "Activity Against Mildew of Wheat\nLeaves of wheat seedlings c.v. “Kanzler” which had been grown in pots were sprayed to run off point with an aqueous preparation of active compound which had been prepared from a stock solution comprising 10% of active compound, 63% of cyclohexanone and 27% of emulsifier, and, 24 hours after the spray coating had dried on, dusted with spores of powdery mildew of wheat (Erysiphe graminis forma specialis tritici). The test plants were then placed in a greenhouse at 20–24° C. and 60–90% relative atmospheric humidity. After 7 days, the extent of the mildew development was determined visually in percent infection of the total leaf area."}},
  "data": [
    {"smiles": "O=C(Cc1ccccc1)NC(Cc1c(F)cccc1Cl)=NOCC1CC1", "note": "[No. 2, O-cyclopropylmethyl N-phenylacetyl-(2-chloro-6-fluorophenyl)-acetamidoxime]", "values": [
      {"measurement": "% infection of the leaves after application of an aqueous preparation comprising 63 ppm of active compound", "setting": "[1]", "value": 10, "unit": "%"},
      {"measurement": "% infection of the leaves after application of an aqueous preparation comprising 16 ppm of active compound", "setting": "[2]", "value": 3, "unit": "%"}
    ]},
    {"smiles": "O=C(Cc1ccccc1)NC(Cc1c(Cl)cccc1Cl)=NOCC1CC1", "note": "[No. 1, O-cyclopropylmethyl N-phenylacetyl-(2,6-dichlorophenyl)-acetamidoxime]", "values": [
      {"measurement": "% infection of the leaves after application of an aqueous preparation comprising 63 ppm of active compound", "setting": "[1]", "value": 10, "unit": "%"},
      {"measurement": "% infection of the leaves after application of an aqueous preparation comprising 16 ppm of active compound", "setting": "[2]", "value": 3, "unit": "%"}
    ]}
  ]
}
